The source of these data is ChEMBL document CHEMBL3525934 (Drug Metab Dispos, 2013).

Holding throughout (type): ADME
Conditions in all cases: 0.5 h

Data set [1] deals with T1, Cytochrome P450 1A1 (Homo sapiens, UniProt P04798).
T1 sequence (P04798 whole entry): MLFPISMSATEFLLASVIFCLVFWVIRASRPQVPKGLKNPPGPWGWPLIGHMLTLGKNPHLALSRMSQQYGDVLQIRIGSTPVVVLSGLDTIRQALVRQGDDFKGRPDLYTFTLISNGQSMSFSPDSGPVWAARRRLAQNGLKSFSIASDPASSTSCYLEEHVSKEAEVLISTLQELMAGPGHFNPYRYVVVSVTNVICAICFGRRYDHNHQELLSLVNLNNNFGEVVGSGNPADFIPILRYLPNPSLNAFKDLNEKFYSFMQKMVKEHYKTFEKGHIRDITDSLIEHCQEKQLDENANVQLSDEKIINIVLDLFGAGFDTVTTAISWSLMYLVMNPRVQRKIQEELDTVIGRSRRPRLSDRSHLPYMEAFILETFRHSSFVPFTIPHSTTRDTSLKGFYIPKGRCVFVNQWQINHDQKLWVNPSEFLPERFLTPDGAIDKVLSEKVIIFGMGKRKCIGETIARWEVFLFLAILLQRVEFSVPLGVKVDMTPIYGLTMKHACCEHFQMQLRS
Briefly: Drug metabolism in supersomes expressing human recombinant CYP1A1 assessed as enzyme-mediated clozapine-N-oxide metabolite formation at 100 uM after 30 mins measured per nmol of P450 by HPLC analysis.

Data set [2] has as its target T2, Cytochrome P450 1B1 (Homo sapiens, UniProt Q16678).
T2 sequence (Q16678 whole entry): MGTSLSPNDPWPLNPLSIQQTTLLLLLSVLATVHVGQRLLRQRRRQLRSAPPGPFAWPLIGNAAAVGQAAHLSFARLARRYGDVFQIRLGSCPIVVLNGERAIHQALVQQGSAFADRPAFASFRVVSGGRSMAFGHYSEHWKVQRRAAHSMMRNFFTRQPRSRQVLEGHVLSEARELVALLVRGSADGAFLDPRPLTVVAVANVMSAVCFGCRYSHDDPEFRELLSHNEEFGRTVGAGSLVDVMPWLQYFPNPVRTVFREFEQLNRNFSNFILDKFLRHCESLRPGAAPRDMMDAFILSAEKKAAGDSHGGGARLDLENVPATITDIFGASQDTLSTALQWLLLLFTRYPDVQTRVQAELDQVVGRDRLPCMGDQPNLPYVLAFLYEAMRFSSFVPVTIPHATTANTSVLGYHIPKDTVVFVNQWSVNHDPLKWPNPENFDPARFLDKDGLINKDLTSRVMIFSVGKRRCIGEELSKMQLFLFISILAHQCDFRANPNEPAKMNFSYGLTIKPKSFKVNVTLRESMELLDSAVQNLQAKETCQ
Briefly: Drug metabolism in supersomes expressing human recombinant CYP1B1 assessed as enzyme-mediated total GSH conjugate formation at 100 uM after 30 mins measured per nmol of P450 by HPLC analysis in presence of GSH and hGST P1-1.

Another data set has as its target Cytochrome P450 2C19 (Homo sapiens, UniProt P33261). Briefly: Drug metabolism in supersomes expressing human recombinant CYP2C19 assessed as enzyme-mediated clozapine-N-oxide metabolite formation at 10 uM after 30 mins measured per nmol of P450 by HPLC analysis.
The target in data set [3] is T2, Cytochrome P450 1B1. Briefly: Drug metabolism in supersomes expressing human recombinant CYP1B1 assessed as enzyme-mediated clozapine-N-oxide metabolite formation at 100 uM after 30 mins measured per nmol of P450 by HPLC analysis.
Data set [4] addresses T1, Cytochrome P450 1A1. Briefly: Drug metabolism in supersomes expressing human recombinant CYP1A1 assessed as enzyme-mediated cyanide adduct formation at 100 uM after 30 mins measured per nmol of P450 by HPLC analysis in presence of KCN.
In the next data set the target is T3, Cytochrome P450 2C8 (Homo sapiens, UniProt P10632).
T3 sequence (P10632 whole entry): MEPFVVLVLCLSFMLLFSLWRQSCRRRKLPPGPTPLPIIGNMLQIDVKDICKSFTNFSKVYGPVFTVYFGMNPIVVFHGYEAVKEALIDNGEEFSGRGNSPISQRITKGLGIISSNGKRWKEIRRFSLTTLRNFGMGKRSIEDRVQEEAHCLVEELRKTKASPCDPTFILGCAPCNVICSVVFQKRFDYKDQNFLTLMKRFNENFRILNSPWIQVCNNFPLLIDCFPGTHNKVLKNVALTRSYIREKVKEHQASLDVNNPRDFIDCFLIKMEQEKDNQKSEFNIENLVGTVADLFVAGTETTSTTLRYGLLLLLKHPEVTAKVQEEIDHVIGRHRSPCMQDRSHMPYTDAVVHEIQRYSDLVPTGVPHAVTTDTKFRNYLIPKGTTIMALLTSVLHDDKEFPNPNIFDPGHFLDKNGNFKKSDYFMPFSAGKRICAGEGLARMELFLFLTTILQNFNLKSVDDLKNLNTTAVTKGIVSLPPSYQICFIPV
Briefly: Drug metabolism in supersomes expressing human recombinant CYP2C8 assessed as enzyme-mediated N-desmethylclozapine metabolite formation at 10 uM after 30 mins measured per nmol of P450 by HPLC analysis.

A further data set has as its target T4, Cytochrome P450 1A2 (Homo sapiens, UniProt P05177).
T4 sequence (P05177 whole entry): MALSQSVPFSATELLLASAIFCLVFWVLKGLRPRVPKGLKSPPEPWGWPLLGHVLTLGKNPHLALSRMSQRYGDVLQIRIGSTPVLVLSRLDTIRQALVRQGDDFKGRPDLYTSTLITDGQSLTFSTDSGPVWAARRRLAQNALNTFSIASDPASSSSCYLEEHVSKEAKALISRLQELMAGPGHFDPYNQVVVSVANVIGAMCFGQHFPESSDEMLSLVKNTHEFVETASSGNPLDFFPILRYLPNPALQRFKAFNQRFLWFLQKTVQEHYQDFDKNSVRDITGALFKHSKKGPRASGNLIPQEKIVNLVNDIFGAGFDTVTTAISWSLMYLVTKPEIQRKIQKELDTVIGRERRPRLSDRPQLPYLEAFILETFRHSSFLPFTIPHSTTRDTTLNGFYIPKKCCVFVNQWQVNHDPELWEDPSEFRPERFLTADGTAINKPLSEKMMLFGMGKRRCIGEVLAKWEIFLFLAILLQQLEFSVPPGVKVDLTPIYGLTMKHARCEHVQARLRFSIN
Briefly: Drug metabolism in supersomes expressing human recombinant CYP1A2 assessed as enzyme-mediated clozapine-N-oxide metabolite formation at 100 uM after 30 mins measured per nmol of P450 by HPLC analysis.

In data set [5] the target is T2, Cytochrome P450 1B1. Briefly: Drug metabolism in supersomes expressing human recombinant CYP1B1 assessed as enzyme-mediated N-desmethylclozapine metabolite formation at 100 uM after 30 mins measured per nmol of P450 by HPLC analysis.

Chain of Cytochrome P450 2C19 (P33261 whole entry): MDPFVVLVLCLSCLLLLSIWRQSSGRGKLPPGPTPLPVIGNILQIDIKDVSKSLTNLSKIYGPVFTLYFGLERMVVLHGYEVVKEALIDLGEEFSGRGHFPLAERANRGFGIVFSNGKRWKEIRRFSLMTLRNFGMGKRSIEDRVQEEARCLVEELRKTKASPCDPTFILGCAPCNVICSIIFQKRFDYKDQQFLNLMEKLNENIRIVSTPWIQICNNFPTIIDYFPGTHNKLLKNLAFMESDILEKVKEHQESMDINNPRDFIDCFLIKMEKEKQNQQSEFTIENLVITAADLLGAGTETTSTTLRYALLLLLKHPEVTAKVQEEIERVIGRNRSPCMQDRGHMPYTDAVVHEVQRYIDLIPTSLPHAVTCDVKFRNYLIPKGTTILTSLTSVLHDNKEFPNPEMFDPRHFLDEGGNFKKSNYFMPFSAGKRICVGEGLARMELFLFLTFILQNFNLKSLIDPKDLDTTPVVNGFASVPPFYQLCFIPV

As for `CN1CCN(C2=Nc3cc(Cl)ccc3Nc3ccccc32)CC1` [CLOZAPINE], the Drug metabolism at Cytochrome P450 1A1 [1] is 0.2 nmol/min; on Cytochrome P450 1B1 [2] it was 0.15 nmol/min; on Cytochrome P450 2C19 it was 0.71 nmol/min/nmol P450; on Cytochrome P450 1B1 [3], 0.64 nmol/min/nmol P450; at Cytochrome P450 1A1 [4] it was 0.024 nmol/min; at Cytochrome P450 2C8 it was 0.92 nmol/min. The Drug metabolism at Cytochrome P450 1A2 turned out to be 3.7 nmol/min; on Cytochrome P450 1B1 [5], 0.94 nmol/min.
